The text below walks through data of EP1205473A1, “VESAMICOL PIPERAZINE DERIVATIVES AND DRUGS CONTAINING THE SAME” (DAIICHI RADIOISOTOPE LABORATORIES, LTD., priority 1999, dated 2001).

The target in assay [1] is T1, vesamicol receptors (Rattus norvegicus, UniProt Q62666).
T1 sequence (Q62666 1-530): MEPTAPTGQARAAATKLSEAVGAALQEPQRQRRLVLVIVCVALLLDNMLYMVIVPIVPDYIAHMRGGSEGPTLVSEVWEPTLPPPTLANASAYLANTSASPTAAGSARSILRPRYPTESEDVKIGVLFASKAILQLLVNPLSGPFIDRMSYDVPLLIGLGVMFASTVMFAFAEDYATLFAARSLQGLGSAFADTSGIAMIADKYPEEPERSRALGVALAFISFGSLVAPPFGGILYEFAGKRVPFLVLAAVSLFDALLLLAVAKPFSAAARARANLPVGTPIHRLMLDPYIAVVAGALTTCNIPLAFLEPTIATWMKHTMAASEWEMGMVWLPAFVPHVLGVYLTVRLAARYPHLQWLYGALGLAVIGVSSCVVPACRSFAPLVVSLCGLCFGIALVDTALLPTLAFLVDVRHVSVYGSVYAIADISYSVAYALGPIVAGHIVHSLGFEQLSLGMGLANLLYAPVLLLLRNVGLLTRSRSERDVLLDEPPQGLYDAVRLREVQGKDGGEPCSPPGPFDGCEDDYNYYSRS
Nature of the assay: Receptor binding test: inhibition of I-125 labeled 5-iodobenzo vesamicol binding to brain homogenate. Details: from tissue; host or cells: rat brain without cerebellum, P2 fraction; species or system Male Wistar rats. The settings on record: Inhibitive concentration at 50% (IC50), Vesamicol receptor, Table 5; incubated three hours at 37°C; no unit printed in table (b19 gives nM for DRC140). The method, then: (§1) Properties relating to binding of the vesamicol piperazine derivatives of the present invention to various receptors were examined as follows. Specifically, ligands which combine with each receptor were incubated together with homogenates prepared as follows.
To measure affinity of vesamicol receptors, I-125 labeled 5-iodobenzo vesamicol (synthesized and labeled according to Jung et al., J. Med. Chem. 33, 2065-2068, 1990) was added to a brain homogenate prepared as follows. The vesamicol piperazine derivatives synthesized in the Examples were added at various concentrations. The mixture was then incubated for three hours at 37°C.
(§2) B (%) =((1 0 0 × [U])^(∩))/([ I C50 (])^(∩) (+ [U])^(∩)) [formula] wherein B(%) is the proportion of specific binding in the total binding, n indicates a Hill coefficient, and U is the concentration of unbound ligand.
Male Wistar rats were anesthetized with ether and were decapitated. The brains were immediately extracted. The cerebella were removed from the brains. 0.32 M sucrose (containing 4 mM HEPES (pH 7.4)) in an amount of five times the wet amount (weight) of this sample was added. The sample was homogenized by a potter-type homogenizer for 12 strokes while cooling with ice. 0.32 M sucrose in the same amount as the homogenate (total: 10 times the wet amount of the original sample) was added. The suspension thus obtained was centrifuged for 5 minutes at 1,000 x g. The precipitate was removed. The supernatant liquid was centrifuged at 9,200 x g for 15 minutes to separate the precipitate from the supernatant liquid. P2 fractions were suspended in a Tris-HCl buffer (pH 7.4) for binding experiments and stored at -80°C until the start of the binding experiment.

For the next assay, the target named is T2, sigma receptors (Cavia porcellus, UniProt Q60492).
T2 construct: The brain was immediately extracted; The cerebellum was removed from the brain; from tissue; host or cells: guinea pig brain without cerebellum, membrane pellet
T2 sequence (Q60492 whole entry): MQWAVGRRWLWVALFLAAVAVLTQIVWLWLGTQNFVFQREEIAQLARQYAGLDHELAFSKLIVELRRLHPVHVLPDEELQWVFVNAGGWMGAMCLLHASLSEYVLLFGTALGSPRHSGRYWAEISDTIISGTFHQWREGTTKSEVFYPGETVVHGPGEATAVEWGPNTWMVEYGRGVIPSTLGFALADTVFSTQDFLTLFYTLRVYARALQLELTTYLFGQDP
Description: Receptor binding test: inhibition of tritium-labeled (+) pentazocine binding to brain homogenate. Also noted: species or system male guinea pig. The method, then: as §1
To measure affinity to sigma receptors, tritium-labeled (+) pentazocine was added to a brain homogenate prepared as follows. The vesamicol piperazine derivatives synthesized in the Examples were added at various concentrations, and the mixture was incubated for two hours at room temperature.
as §2
A male guinea pig was anesthetized with ether and was decapitated. The brain was immediately extracted. The cerebellum was removed from the brain. 10 mM Tris-sucrose buffer solution (0.32 M sucrose + 10 mM Tris-HCl (pH 7.4)) was added in the amount of 10 ml/g of the tissue. The mixture was homogenized by a potter-type homogenizer for 6-10 strokes. The homogenate was centrifuged at 1,000 x g for 10 minutes at 4°C and the supernatant liquid was collected. The resulting pellets were suspended in the Tris-sucrose buffer solution at the concentration of 2 ml/g, followed by centrifugation at 1,000 x g for 10 minutes at 4°C. The supernatant liquids obtained by the two centrifugation at 1,000 x g were combined and centrifuged at 31,000 x g for 15 minutes at 4°C. The resulting pellets were suspended in a 10 mM Tris-HCl buffer solution (pH 7.4) at a concentration of 3 ml/g of tissue and incubated for 30 minutes at 25°C. After incubation, the suspension was centrifuged at 31,000 x g for 15 minutes at 4°C. The pellets obtained were suspended in a 10 mM Tris-HCl buffer solution (pH 7.4) to make a final concentration of 1.53 ml/g of tissue. The suspension was homogenized by a potter-type homogenizer for 5 strokes. The homogenate was stored at -80°C until the start of the experiment.

For assay [2], the target named is T1, vesamicol receptors. Description: Inhibition experiment: inhibition of binding of radioactive-iodine-labeled DRC140 to P2 fractions. Details: Synaptic vesicles were extracted and separated from the brain of a rat; from tissue; host or cells: rat brain without cerebellum: P2, crude synaptic vesicles, purified synaptic vesicles. Particulars: inhibitive concentration at 50% (IC50), Receptor Vesamicol.

For assay [3], the target named is T1, vesamicol receptors. Description: Saturation experiment of I-125 labeled DRC140 on brain cell fractions (Scatchard plots). The class given is binding. Details: Synaptic vesicles were extracted and separated from the brain of a rat; from tissue; host or cells: rat brain without cerebellum: P2, crude synaptic vesicles, purified synaptic vesicles. The settings on record: for Bmax / Kd: average value ± standard deviation.

The mark [4] stands for this setting: Inhibitive concentration at 50% (IC50), Sigma α-1 receptor.
[5] abbreviates: inhibitive concentration at 50% (IC50), Receptor Sigma-1.

In general, IC50 refers to the midpoint of a concentration-inhibition curve. On vesamicol receptors [1], `Cc1ccccc1N1CCN([C@@H]2Cc3cccc(I)c3C[C@H]2O)CC1` (racemic) [DRE335, (+)-trans-8-iodo-2-hydroxy-3-[4-[2-methylphenyl]piperazinyl]tetralin] gave an IC50 of 2.8 nM.

For `O[C@@H]1Cc2cccc(I)c2C[C@H]1N1CCN(c2ccccn2)CC1` (racemic) [DRE328, (±)-trans-5-iodo-2-hydroxy-3-[4-[2-pyridyl]-piperazinyl]tetralin], at vesamicol receptors [1], the IC50 came out at 38.4 nM.

For `Cc1cccc(N2CCN([C@@H]3Cc4c(I)cccc4C[C@H]3O)CC2)c1C` (racemic) [DRE354, (±)-trans-5-iodo-2-hydroxy-3-[4-[2,3-dimethylphenyl]piperazinyl]tetralin], the IC50 on sigma receptors (setting [4]) came out at 428 nM; on sigma receptors (setting [5]), 4560 nM; at vesamicol receptors [1], 1.41 nM; on vesamicol receptors [2], 1.67 nM.

As to `Cc1cccc(N2CCN([C@@H]3Cc4c(I)cccc4C[C@H]3O)CC2)c1` (racemic) [DRF380, (±)-trans-5-iodo-2-hydroxy-3-[4-[3-methylphenyl]piperazinyl]tetralin], the IC50 was determined as 16300 nM at sigma receptors (setting [5]), 3.69 nM at vesamicol receptors [1] and 2.47 nM on vesamicol receptors [2].

Consider `Cc1ccc(C)c(N2CCN([C@@H]3Cc4cc(I)ccc4C[C@H]3O)CC2)c1` (racemic) [DRE365, (±)-trans-6-iodo-2-hydroxy-3-[4-[2,5-dimethylphenyl]piperazinyl]tetralin], for which the IC50 at vesamicol receptors [1] amounted to 2.9 nM.

For `Cc1ccccc1N1CCN([C@@H]2Cc3c(I)cccc3C[C@H]2O)CC1` (racemic) [DRE334, (±)-trans-5-iodo-2-hydroxy-3-[4-[2-methylphenyl]piperazinyl]tetralin], the IC50 on sigma receptors (setting [4]) came to 109 nM; at sigma receptors (setting [5]) it was 4480 nM; at vesamicol receptors [1], 0.72 nM; on vesamicol receptors [2], 0.74 nM.

`Cc1ccc(N2CCN([C@@H]3Cc4c(I)cccc4C[C@H]3O)CC2)cc1` (racemic) [DRF381, (±)-trans-5-iodo-2-hydroxy-3-[4-[4-methylphenyl]piperazinyl]tetralin]: the IC50 on sigma receptors (setting [5]) amounted to 4780 nM; at vesamicol receptors [1], 13.9 nM; on vesamicol receptors [2], 14.7 nM.

As usually defined, the Kd is the equilibrium constant for the complex coming apart. High values mean lower affinity, low ones higher affinity. Turning to `OC1Cc2cccc([125I])c2CC1N1CCN(c2ccccc2)CC1` (stereo not shown) [I-125 labeled DRC140], the Bmax on vesamicol receptors [3] (Crude synaptic vesicles) amounted to 821±78.6 fmol/mg protein; at vesamicol receptors [3] (P2 fraction, 3 hours at 37°C), 187±58.3 fmol/mg protein; on vesamicol receptors [3] (Purified synaptic vesicles), 1751±92.6 fmol/mg protein. The equilibrium dissociation constant (Kd) is 0.34 ± 0.03 nM at vesamicol receptors [3] (Crude synaptic vesicles), 0.41 ± 0.11 nM at vesamicol receptors [3] (P2 fraction) and 0.31 nM on vesamicol receptors [3] (Purified synaptic vesicles). Also, at vesamicol receptors [3] (purified by density gradient centrifugation versus P2 fractions), the “increase in the Bmax of purified synaptic vesicles relative to P2 fractions” value is “approximately nine”.

Take `COc1ccc(C)c(N2CCN([C@@H]3Cc4c(I)cccc4C[C@H]3O)CC2)c1` (racemic) [DRE378, (±)-trans-5-iodo-2-hydroxy-3-[4-[5-methoxy-2-methylphenyl]piperazinyl]tetralin]: the IC50 at vesamicol receptors [1] came out at 5.09 nM.

For the compound `Cc1ccc(I)cc1N1CCN([C@@H]2Cc3c(N)cccc3C[C@H]2O)CC1` (racemic) [DRF383, (±)-trans-5-amino-2-hydroxy-3-[4-[5-iodo-2-methylphenyl]-piperazinyl]tetralin], the IC50 at sigma receptors (setting [4]) turned out to be 6900 nM; on vesamicol receptors [1], 8.74 nM; at vesamicol receptors [2], 8.47 nM.

`Cc1ccc(C)c(N2CCN([C@@H]3Cc4ccc(I)cc4C[C@H]3O)CC2)c1` (racemic) [DRE366, (±)-trans-7-iodo-2-hydroxy-3-[4-[2,5-dimethylphenyl]-piperazinyl]tetralin]: the IC50 at sigma receptors (setting [4]) came out at 203 nM; at sigma receptors (setting [5]) it was 203 nM; on vesamicol receptors [1], 1.14 nM; on vesamicol receptors [2], 0.88 nM.

`CCc1ccccc1N1CCN([C@@H]2Cc3c(I)cccc3C[C@H]2O)CC1` (racemic) [DRE353, (±)-trans-5-iodo-2-hydroxy-3-[4-[2-ethylphenyl]piperazinyl]tetralin]: the IC50 on sigma receptors (setting [4]) was 6900 nM; on sigma receptors (setting [5]) it was 5110 nM; on vesamicol receptors [1], 8.74 nM; at vesamicol receptors [2], 1.1 nM.

Take `Cc1cccc(C)c1N1CCN([C@@H]2Cc3c(I)cccc3C[C@H]2O)CC1` (racemic) [DRF382, (±)-trans-5-iodo-2-hydroxy-3-[4-[2,6-dimethylphenyl]piperazinyl]tetralin]: the IC50 on sigma receptors (setting [4]) worked out at 1300 nM; on vesamicol receptors [1], 5.04 nM; at vesamicol receptors [2], 6.94 nM.

With `Cc1ccc(C)c(N2CCN([C@@H]3Cc4c(I)cccc4C[C@H]3O)CC2)c1` (racemic) [DRE348, (±)-trans-5-iodo-2-hydroxy-3-[4-[2,5-dimethylphenyl]piperazinyl]tetralin], the 50% inhibitory concentration (IC50) on sigma receptors (setting [4]) is 1500 nM; at sigma receptors (setting [5]), 5570 nM; on vesamicol receptors [1] it was 0.78 nM; at vesamicol receptors [2], 1.16 nM.
